{"source": "patent US8952024B2", "about": "“Herbicidal pyrimidone derivatives” (E I du Pont de Nemours and Company, priority 2009, dated 2015)", "assay_type_in_all_cases": "in vivo", "key": {"[1]": {"system": "ducksalad (Heteranthera limosa)", "test": "Test B flooded paddy test", "details": "for Plant response rating, Ducksalad: Flood (flooded paddy test), 13 to 15 days", "in_short": "(§1)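 Ratings are visual, 0–100 (100 = complete control), taken versus untreated controls 13 to 15 days after treatment in the greenhouse. Compound went straight into paddy water held 3 cm above soil, applied to 2-leaf-stage plants of four species.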"}, "[2]": {"system": "barnyardgrass (Echinochloa crus-galli)", "test": "Test B flooded paddy test", "details": "for Plant response rating, Barnyardgrass: Flood (flooded paddy test), 13 to 15 days", "in_short": "as §1"}, "rice (Oryza sativa)": {"system": "rice (Oryza sativa)", "test": "Test B flooded paddy test", "details": "for Plant response rating, Rice: Flood (flooded paddy test), 13 to 15 days", "in_short": "as §1"}, "[3]": {"system": "umbrella sedge (Cyperus difformis)", "test": "Test B flooded paddy test", "details": "for Plant response rating, Sedge, Umbrella: Flood (flooded paddy test), 13 to 15 days", "in_short": "as §1"}, "[4]": {"system": "barnyardgrass (Echinochloa crus-galli)", "test": "Test A pre-/postemergence plant response", "in_short": "(§2)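 Greenhouse trial, ~10 days. Soil (loam/sand) sprayed preemergence after seeding; emerged plants (1–2 leaf, 2–10 cm) sprayed postemergence in parallel. Response = visual injury vs untreated control, 0–100.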"}, "[5]": {"system": "velvetleaf (Abutilon theophrasti)", "test": "Test A pre-/postemergence plant response", "in_short": "as §2"}, "[6]": {"system": "large crabgrass (Digitaria sanguinalis)", "test": "Test A pre-/postemergence plant response", "in_short": "as §2"}, "corn (Zea mays)": {"system": "corn (Zea mays)", "test": "Test A pre-/postemergence plant response", "in_short": "as §2"}, "[7]": {"system": "wheat (Triticum aestivum)", "test": "Test A pre-/postemergence plant response", "in_short": "as §2"}, "[8]": {"system": "giant foxtail (Setaria faberii)", "test": "Test A pre-/postemergence plant response", "in_short": "as §2"}, "[9]": {"system": "pigweed (Amaranthus retroflexus)", "test": "Test A pre-/postemergence plant response", "in_short": "as §2"}, "[10]": {"system": "morningglory (Ipomoea spp.)", "test": "Test A pre-/postemergence plant response", "details": "approx. ten days; for Plant response rating, Morningglory: 500 g ai/ha", "in_short": "as §2"}, "[11]": {"details": "250 g ai/ha, flooded paddy test, visual rating on 0 to 100 scale (0 no effect, 100 complete control) after 13 to 15 days"}, "[12]": {"details": "31 g ai/ha, scale of 0 to 100 where 0 is no effect and 100 is complete control"}, "[13]": {"details": "62 g ai/ha, scale of 0 to 100 where 0 is no effect and 100 is complete control"}, "[14]": {"details": "125 g ai/ha, scale 0 to 100, 0 is no effect, 100 is complete control"}, "[15]": {"details": "Postemergence, 125 g ai/ha, visual injury, 0 to 100 scale (0 no effect, 100 complete control), approx. ten days"}, "[16]": {"details": "Postemergence, 500 g ai/ha, 0 to 100 scale, 0 = no effect, 100 = complete control, approx. ten days"}, "[17]": {"details": "Preemergence, 125 g ai/ha, 0 to 100 scale, 0 = no effect, 100 = complete control"}, "[18]": {"details": "Preemergence, 500 g ai/ha, visual injury, 0 to 100 scale (0 no effect, 100 complete control), approx. ten days"}}, "data": [{"molecule": "CC(C)c1ncc(C(=O)C2=C(O)CCCC2=O)c(=O)n1-c1ccccc1", "note": "[Compound 60]", "values": [{"measurement": "Plant response rating, Flood, Ducksalad", "setting": "[1]; [11]", "result": 60}, {"measurement": "Plant response rating, Ducksalad", "setting": "[1]; [12]", "result": 0}, {"measurement": "Plant response rating, Ducksalad", "setting": "[1]; [13]", "result": 0}, {"measurement": "Plant response rating, Ducksalad", "setting": "[1]; [14]", "result": 40}, {"measurement": "Plant response rating, Flood, Barnyardgrass", "setting": "[2]; [11]", "result": 40}, {"measurement": "Plant response rating, Barnyardgrass", "setting": "[2]; [12]", "result": 0}, {"measurement": "Plant response rating, Barnyardgrass", "setting": "[2]; [13]", "result": 0}, {"measurement": "Plant response rating, Barnyardgrass", "setting": "[2]; [14]", "result": 30}, {"measurement": "Plant response rating, Flood, Rice", "setting": "rice (Oryza sativa); [11]", "result": 15}, {"measurement": "Plant response rating, Rice", "setting": "rice (Oryza sativa); [12]", "result": 0}, {"measurement": "Plant response rating, Rice", "setting": "rice (Oryza sativa); [13]", "result": 0}, {"measurement": "Plant response rating, Rice", "setting": "rice (Oryza sativa); [14]", "result": 0}, {"measurement": "Plant response rating, Flood, Sedge, Umbrella", "setting": "[3]; [11]", "result": 85}, {"measurement": "Plant response rating, Sedge, Umbrella", "setting": "[3]; [12]", "result": 0}, {"measurement": "Plant response rating, Sedge, Umbrella", "setting": "[3]; [13]", "result": 30}, {"measurement": "Plant response rating, Sedge, Umbrella", "setting": "[3]; [14]", "result": 75}, {"measurement": "Barnyardgrass plant response rating", "setting": "[4]; [15]", "result": 60}, {"measurement": "Plant response rating, Barnyardgrass", "setting": "[4]; [16]", "result": 90}, {"measurement": "Plant response rating, Barnyardgrass", "setting": "[4]; [17]", "result": 60}, {"measurement": "Plant response rating, Barnyardgrass", "setting": "[4]; [18]", "result": 90}, {"measurement": "Velvetleaf plant response rating", "setting": "[5]; [15]", "result": 100}, {"measurement": "Plant response rating, Velvetleaf", "setting": "[5]; [16]", "result": 100}, {"measurement": "Plant response rating, Velvetleaf", "setting": "[5]; [17]", "result": 80}, {"measurement": "Plant response rating, Velvetleaf", "setting": "[5]; [18]", "result": 100}, {"measurement": "Crabgrass, Large plant response rating", "setting": "[6]; [15]", "result": 90}, {"measurement": "Plant response rating, Crabgrass, Large", "setting": "[6]; [16]", "result": 100}, {"measurement": "Plant response rating, Crabgrass, Large", "setting": "[6]; [17]", "result": 90}, {"measurement": "Plant response rating, Crabgrass, Large", "setting": "[6]; [18]", "result": 100}, {"measurement": "Corn plant response rating", "setting": "corn (Zea mays); [15]", "result": 0}, {"measurement": "Plant response rating, Corn", "setting": "corn (Zea mays); [16]", "result": 10}, {"measurement": "Plant response rating, Corn", "setting": "corn (Zea mays); [17]", "result": 0}, {"measurement": "Plant response rating, Corn", "setting": "corn (Zea mays); [18]", "result": 10}, {"measurement": "Wheat plant response rating", "setting": "[7]; [15]", "result": 20}, {"measurement": "Plant response rating, Wheat", "setting": "[7]; [16]", "result": 50}, {"measurement": "Plant response rating, Wheat", "setting": "[7]; [17]", "result": 0}, {"measurement": "Plant response rating, Wheat", "setting": "[7]; [18]", "result": 40}, {"measurement": "Foxtail, Giant plant response rating", "setting": "[8]; [15]", "result": 80}, {"measurement": "Plant response rating, Foxtail, Giant", "setting": "[8]; [16]", "result": 90}, {"measurement": "Plant response rating, Foxtail, Giant", "setting": "[8]; [17]", "result": 60}, {"measurement": "Plant response rating, Foxtail, Giant", "setting": "[8]; [18]", "result": 90}, {"measurement": "Pigweed plant response rating", "setting": "[9]; [15]", "result": 100}, {"measurement": "Plant response rating, Pigweed", "setting": "[9]; [16]", "result": 100}, {"measurement": "Plant response rating, Pigweed", "setting": "[9]; [17]", "result": 90}, {"measurement": "Plant response rating, Pigweed", "setting": "[9]; [18]", "result": 100}, {"measurement": "Morningglory plant response rating", "setting": "[10]; Postemergence, 125 g ai/ha, visual injury, 0 to 100 scale (0 no effect, 100 complete control)", "result": 60}, {"measurement": "Plant response rating, Morningglory", "setting": "[10]; Postemergence, 0 to 100 scale, 0 = no effect, 100 = complete control", "result": 90}, {"measurement": "Plant response rating, Morningglory", "setting": "[10]; Preemergence, visual injury, 0 to 100 scale (0 no effect, 100 complete control)", "result": 80}]}]}
